The values below come from patent US20110040088A1, “FUSED HETEROCYCLIC COMPOUNDS” (priority 2003, published 2011).

The target in test [1] is T1, human recombinant 5-HT2C receptor (Homo sapiens, UniProt P28335).
T1 sequence (P28335 33-458): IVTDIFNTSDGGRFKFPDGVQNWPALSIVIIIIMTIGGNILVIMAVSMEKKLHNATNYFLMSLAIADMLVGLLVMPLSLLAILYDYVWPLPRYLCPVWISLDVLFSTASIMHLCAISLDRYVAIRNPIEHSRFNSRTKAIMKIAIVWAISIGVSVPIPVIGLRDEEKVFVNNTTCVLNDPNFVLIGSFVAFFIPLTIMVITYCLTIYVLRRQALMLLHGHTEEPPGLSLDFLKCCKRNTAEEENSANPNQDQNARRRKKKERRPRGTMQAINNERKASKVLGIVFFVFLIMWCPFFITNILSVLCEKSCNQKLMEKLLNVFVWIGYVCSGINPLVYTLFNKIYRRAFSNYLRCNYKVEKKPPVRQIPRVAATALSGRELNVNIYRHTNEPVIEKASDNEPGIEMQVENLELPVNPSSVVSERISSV
In words: 5-HT2C receptor radioligand binding ([3H]mesulergine, CHO membranes).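 Also: competitive displacement of the tritiated ligand, using membranes from CHO cells stably transfected with the human receptor.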

Test [2] concerns the target human recombinant 5-HT2B receptor (Homo sapiens, UniProt P41595). The test is described as follows: 5-HT2B receptor radioligand binding ([3H]mesulergine, CHO membranes).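 Also: competitive displacement binding on membranes of CHO cells stably expressing the receptor.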
A further test deals with 5-HT2A receptor (UniProt P28223). In words: 5-HT2A receptor radioligand binding ([3H]ketanserin).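 Also: competitive displacement binding on membranes, either from rat cerebral cortex or from NIH3T3 cells stably expressing human 5-HT2A.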 The conditions noted are these: read-out: Ki 5-HT2A, table does not say whether rat cortex or human recombinant (NIH3T3) receptor.
Another test deals with T2, rat 5-HT7a receptor (Rattus norvegicus, UniProt P32305).
T2 construct: expressed in transfected cells
T2 sequence (P32305 whole entry): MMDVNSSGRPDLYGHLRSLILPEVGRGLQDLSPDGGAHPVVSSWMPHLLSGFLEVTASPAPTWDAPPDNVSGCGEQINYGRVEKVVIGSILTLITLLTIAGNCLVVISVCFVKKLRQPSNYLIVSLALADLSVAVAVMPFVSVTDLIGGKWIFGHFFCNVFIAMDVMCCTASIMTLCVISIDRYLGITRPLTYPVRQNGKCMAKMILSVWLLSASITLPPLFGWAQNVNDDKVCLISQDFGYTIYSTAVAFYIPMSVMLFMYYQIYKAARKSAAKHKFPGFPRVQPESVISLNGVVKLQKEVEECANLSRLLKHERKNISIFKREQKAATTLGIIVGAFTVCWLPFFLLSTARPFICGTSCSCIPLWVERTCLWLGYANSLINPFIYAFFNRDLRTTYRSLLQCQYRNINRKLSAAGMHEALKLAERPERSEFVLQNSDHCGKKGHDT
In words: 5-HT7 receptor radioligand binding ([3H]5-CT, membranes of transfected HEK-293 cells). The conditions noted are these: rat 5-HT7a in HEK-293 membranes, 1 nM [3H]5-CT.

Setting [3] is: read-out: Ki 5-HT2C, h5-HT2C in CHO membranes, [3H]mesulergine.

The structures appear in SMILES notation. Like-named read-outs stand apart in the source and are kept apart here.

Sequence of human recombinant 5-HT2B receptor (P41595 whole entry): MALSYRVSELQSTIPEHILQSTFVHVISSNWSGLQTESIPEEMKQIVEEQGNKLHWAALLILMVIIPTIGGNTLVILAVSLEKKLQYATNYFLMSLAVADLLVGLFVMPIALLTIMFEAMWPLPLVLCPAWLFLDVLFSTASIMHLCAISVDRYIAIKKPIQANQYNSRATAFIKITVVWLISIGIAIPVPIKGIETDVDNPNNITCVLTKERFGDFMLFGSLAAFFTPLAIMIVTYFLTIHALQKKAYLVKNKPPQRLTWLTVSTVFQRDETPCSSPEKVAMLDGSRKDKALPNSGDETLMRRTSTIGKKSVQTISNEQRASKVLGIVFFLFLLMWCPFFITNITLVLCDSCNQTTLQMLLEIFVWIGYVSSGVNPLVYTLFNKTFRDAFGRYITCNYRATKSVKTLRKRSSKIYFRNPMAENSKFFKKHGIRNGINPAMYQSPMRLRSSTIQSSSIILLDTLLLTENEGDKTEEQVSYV
Experimental for 5-HT2A receptor: The affinity of the compounds for the rat 5-HT2A receptor was evaluated by competitive radioligand binding assay using [^3H]ketanserine as the radioligand. The assay was performed on membranes from rat cortex as previously described (Schotte, A. et al., Psychopharmacology (1996) 124: 57-73). Briefly, brain tissue (rat cortex) was homogenized in 20 volumes per wet weight tissue of Tris-HCl buffer (50 mM, pH 7.4). The total membrane fraction was collected by centrifugation and washed by subsequent centrifugation runs (25 min at 25,000 g at 4° C.). Membranes were re-suspended in Tris-HCl buffer (50 mM, pH 7.4) containing 1 nM [^3H]ketanserin. Non-specific binding was estimated in the presence of 10 μM risperidone.

Take `Fc1ccc(-c2c3c(nn2C2CCCC2)CCNCC3)cc1F` [Example 236, 2-Cyclopentyl-3-(3,4-difluoro-phenyl)-2,4,5,6,7,8-hexahydro-1,2,6-triaza-azulene]: the Ki (usually a dissociation constant, usually derived from enzyme kinetics or from competition with a known ligand) in test [1] was 32 nM; in test [2] it was 4.5 nM; at 5-HT2A receptor it was 7 nM; at rat 5-HT7a receptor it was 950 nM.

In the case of `Clc1ccc(-c2c3c(nn2C2CCC2)CCNCC3)cc1` [Example 238, 3-(4-Chloro-phenyl)-2-cyclobutyl-2,4,5,6,7,8-hexahydro-1,2,6-triaza-azulene], the Ki in test [1] was determined as 13 nM; in test [2], 0.5 nM; on 5-HT2A receptor, 1 nM; on rat 5-HT7a receptor it was 40 nM.

Regarding `Fc1cc(-c2c3c(nn2C2CCCC2)CCNCC3)ccc1Cl` [Example 241, 3-(4-Chloro-3-fluoro-phenyl)-2-cyclopentyl-2,4,5,6,7,8-hexahydro-1,2,6-triaza-azulene], the Ki is 38 nM in test [1], 9.5 nM in test [2], 9 nM on 5-HT2A receptor and 310 nM on rat 5-HT7a receptor.

As for `COc1ccc(-c2c3c(nn2C(C)C)CCNCC3)cc1` [Example 242, 2-Isopropyl-3-(4-methoxy-phenyl)-2,4,5,6,7,8-hexahydro-1,2,6-triaza-azulene], the Ki in test [1] (setting [3]) is 45 nM; in test [2], 1.3 nM; at 5-HT2A receptor it was 8 nM; at rat 5-HT7a receptor, 21 nM.

In the case of `c1ccc(-c2c3c(nn2C2CCC2)CCNCC3)cc1` [Example 276, 2-Cyclobutyl-3-phenyl-2,4,5,6,7,8-hexahydro-1,2,6-triaza-azulene], the inhibition constant Ki is 90 nM in test [1] (setting [3]), 2.5 nM in test [2], 3 nM on 5-HT2A receptor and 90 nM on rat 5-HT7a receptor.

Consider `Fc1ccc(-c2c3c(nn2C2CCC2)CCNCC3)cc1` [Example 277, 2-Cyclobutyl-3-(4-fluoro-phenyl)-2,4,5,6,7,8-hexahydro-1,2,6-triaza-azulene], for which the Ki in test [1] came out at 40 nM; in test [2] it was 3 nM; on 5-HT2A receptor, 0.9 nM; on rat 5-HT7a receptor it was 150 nM.

As for `Cc1ccc(-c2c3c(nn2C2CCC2)CCNCC3)cc1` [Example 278, 2-Cyclobutyl-3-p-tolyl-2,4,5,6,7,8-hexahydro-1,2,6-triaza-azulene], the Ki in test [1] came to 10 nM; in test [2] it was 0.2 nM; at 5-HT2A receptor it was 0.1 nM; at rat 5-HT7a receptor, 35 nM.

As to `FC(F)(F)c1ccc(-c2c3c(nn2C2CCC2)CCNCC3)cc1` [Example 279, 2-Cyclobutyl-3-(4-trifluoromethyl-phenyl)-2,4,5,6,7,8-hexahydro-1,2,6-triaza-azulene], the Ki in test [1] came to 45 nM; in test [2], 1 nM; on 5-HT2A receptor it was 0.8 nM; at rat 5-HT7a receptor, 80 nM.

On to `N#Cc1ccc(-c2c3c(nn2C2CCC2)CCNCC3)cc1` [Example 280, 4-(2-Cyclobutyl-2,4,5,6,7,8-hexahydro-1,2,6-triaza-azulen-3-yl)-benzonitrile], for which the inhibition constant (Ki) in test [1] came to 120 nM; in test [2] it was 6 nM; on 5-HT2A receptor it was 1.5 nM; at rat 5-HT7a receptor it was 3300 nM.

For `Fc1ccc(-c2c3c(nn2C2CC2)CCNCC3)cc1` [Example 282, 2-Cyclopropyl-3-(4-fluoro-phenyl)-2,4,5,6,7,8-hexahydro-1,2,6-triaza-azulene], the inhibition constant (Ki) in test [1] (setting [3]) is 200 nM; in test [2] (read-out: Ki 5-HT2B, h5-HT2B in CHO membranes, [3H]mesulergine) it was 20 nM; at 5-HT2A receptor, 6 nM; on rat 5-HT7a receptor, 100 nM.

For `CCC(CC)n1nc2c(c1-c1ccc(F)c(C)c1)CCNCC2` [Example 283, 2-(1-Ethyl-propyl)-3-(4-fluoro-3-methyl-phenyl)-2,4,5,6,7,8-hexahydro-1,2,6-triaza-azulene], the Ki in test [1] is 150 nM; in test [2], 60 nM; at 5-HT2A receptor, 10 nM; on rat 5-HT7a receptor it was 5000 nM.

Turning to `Cc1ccc(-c2c3c(nn2C2CC2)CCNCC3)cc1` [Example 284, 2-Cyclopropyl-3-p-tolyl-2,4,5,6,7,8-hexahydro-1,2,6-triaza-azulene], the inhibition constant (Ki) in test [1] worked out at 60 nM; in test [2] it was 2 nM; at 5-HT2A receptor, 1 nM; at rat 5-HT7a receptor, 10 nM.

For `c1cc(-c2c3c(nn2C2CC2)CCNCC3)cs1` [Example 285, 2-Cyclopropyl-3-thiophen-3-yl-2,4,5,6,7,8-hexahydro-1,2,6-triaza-azulene], the Ki in test [1] turned out to be 500 nM; in test [2], 6 nM; on 5-HT2A receptor, 60 nM; at rat 5-HT7a receptor, 29 nM.

For `N#Cc1ccc(-c2c3c(nn2C2CC2)CCNCC3)cc1` [Example 286, 4-(2-Cyclopropyl-2,4,5,6,7,8-hexahydro-1,2,6-triaza-azulen-3-yl)-benzonitrile], the Ki in test [1] worked out at 5000 nM; in test [2], 80 nM; at 5-HT2A receptor, 50 nM; at rat 5-HT7a receptor, 335 nM.

On to `CCC(C)n1nc2c(c1-c1ccccc1)CCNCC2` (centres unmarked) [Example 298, 2-sec-Butyl-3-phenyl-2,4,5,6,7,8-hexahydro-1,2,6-triaza-azulene], for which the Ki in test [1] worked out at 60 nM; in test [2], 6.5 nM; on 5-HT2A receptor, 5 nM; at rat 5-HT7a receptor, 50 nM.

`CCC(C)n1nc2c(c1-c1ccc(F)cc1)CCNCC2` (centres unmarked) [Example 299, 2-sec-Butyl-3-(4-fluoro-phenyl)-2,4,5,6,7,8-hexahydro-1,2,6-triaza-azulene]: the Ki in test [1] is 26 nM; in test [2] it was 9 nM; at 5-HT2A receptor, 1.7 nM; on rat 5-HT7a receptor, 35 nM.

As to `CCC(C)n1nc2c(c1-c1ccc(C)cc1)CCNCC2` (centres unmarked) [Example 300, 2-sec-Butyl-3-p-tolyl-2,4,5,6,7,8-hexahydro-1,2,6-triaza-azulene], the Ki came to 12 nM in test [1], 0.8 nM in test [2], 0.3 nM on 5-HT2A receptor and 10 nM at rat 5-HT7a receptor.

As to `CCC(C)n1nc2c(c1-c1ccc(C(F)(F)F)cc1)CCNCC2` (centres unmarked) [Example 301, 2-sec-Butyl-3-(4-trifluoromethyl-phenyl)-2,4,5,6,7,8-hexahydro-1,2,6-triaza-azulene], the inhibitory constant (Ki) in test [1] stood at 100 nM; in test [2] it was 3 nM; on 5-HT2A receptor, 1.6 nM; on rat 5-HT7a receptor, 40 nM.

As to `CN1CCc2nn(C3CCCC3)c(-c3ccc(F)cc3)c2CC1` [Example 302, 2-Cyclopentyl-3-(4-fluoro-phenyl)-6-methyl-2,4,5,6,7,8-hexahydro-1,2,6-triaza-azulene], the Ki in test [1] was 21.5 nM; in test [2], 1.3 nM; at 5-HT2A receptor, 0.2 nM; at rat 5-HT7a receptor it was 100 nM.

Consider `CC1CN(Cc2ccccc2)CCc2c1nn(C(C)C)c2-c1ccc(F)cc1` (centres unmarked) [Example 305, 6-Benzyl-3-(4-fluoro-phenyl)-2-isopropyl-8-methyl-2,4,5,6,7,8-hexahydro-1,2,6-triaza-azulene], for which the Ki in test [1] was determined as 2200 nM; in test [2], 60 nM; on 5-HT2A receptor, 20 nM; at rat 5-HT7a receptor it was 600 nM.

For the molecule `CC1CNCCc2c1nn(C(C)C)c2-c1ccc(F)cc1` (centres unmarked) [Example 306, 3-(4-Fluoro-phenyl)-2-isopropyl-8-methyl-2,4,5,6,7,8-hexahydro-1,2,6-triaza-azulene], the Ki in test [1] came to 39 nM; in test [2], 22 nM; on 5-HT2A receptor it was 1 nM; at rat 5-HT7a receptor, 120 nM.

As for `CC1Cc2nn(C3CCCC3)c(-c3ccc(F)cc3)c2CCN1` (centres unmarked) [Example 308, 2-Cyclopentyl-3-(4-fluoro-phenyl)-7-methyl-2,4,5,6,7,8-hexahydro-1,2,6-triaza-azulene], the Ki in test [1] was found to be 162 nM; in test [2], 3 nM; on 5-HT2A receptor, 2 nM; on rat 5-HT7a receptor, 5200 nM.

As to `CC1Cc2c(nn(C3CCCC3)c2-c2ccc(F)cc2)CCN1` (centres unmarked) [Example 309, 2-Cyclopentyl-3-(4-fluoro-phenyl)-5-methyl-2,4,5,6,7,8-hexahydro-1,2,6-triaza-azulene], the Ki was determined as 130 nM in test [1], 15 nM in test [2], 30 nM on 5-HT2A receptor and 130 nM on rat 5-HT7a receptor.

With `Cc1ccc(-c2c3c(nn2C2CCCC2)CC(C)NCC3)cc1` (centres unmarked) [Example 310, 2-Cyclopentyl-7-methyl-3-p-tolyl-2,4,5,6,7,8-hexahydro-1,2,6-triaza-azulene], the Ki was found to be 30 nM in test [1], 0.4 nM in test [2], 0.2 nM on 5-HT2A receptor and 475 nM at rat 5-HT7a receptor.

Turning to `CC1Cc2nn(C(C)C)c(-c3ccccc3)c2CCN1` (centres unmarked) [Example 311, 2-Isopropyl-7-methyl-3-phenyl-2,4,5,6,7,8-hexahydro-1,2,6-triaza-azulene], the inhibition constant (Ki) worked out at 3000 nM in test [1], 100 nM in test [2], 140 nM on 5-HT2A receptor and 80 nM on rat 5-HT7a receptor.

For `CC1Cc2nn(C(C)C)c(-c3ccc(F)cc3)c2CCN1` (centres unmarked) [Example 313, 3-(4-Fluoro-phenyl)-2-isopropyl-7-methyl-2,4,5,6,7,8-hexahydro-1,2,6-triaza-azulene], the inhibitory constant (Ki) in test [1] came to 1000 nM; in test [2] it was 40 nM; on 5-HT2A receptor it was 100 nM; at rat 5-HT7a receptor it was 30 nM.
